Laboratory results from US11666577B2 (National Institute of Biological Sciences, Beijing, priority 2018, dated 2023).
Like-named read-outs stand apart in the source and are kept apart here.

Tested on: HT-29 cells
Experiment: Necroptosis assay (TNF-α/Smac mimetic/z-VAD, TSZ-induced) in HT-29 cells
Assay type: cell-based, human
Experimental: Methods: HT-29 cells were cultured in McCoy's 5 A culture medium (Invitrogen). On day one, HT-29 cells were plated in 96-well assay plates at density of 2,500-3,500 cells per well. On day two, necrosis were induced by adding 20 ng/ml TNF-α (T), 100 nM Smac mimetic (S), and […] z-VAD (Z). At the same time, 10 mM compound from a chemical library of ˜200,000 compounds was delivered into each well. After 24 hrs treatment, cell viability was determined by measuring ATP level using the Cell Titer-Glo Luminescent Cell Viability Assay kit. A CellTiter-Glo Assay (Promega) was performed according to the manufacturer's instructions. Luminescence was recorded with a PerkinElmer EnSpire Multimode Plate Reader. Survived cells were normalized to those cells treated with DMSO. RIPA-56 was used as a positive control for screening necroptosis inhibitors. Data are represented as mean±standard deviation of duplicates.
In previous work, we performed a cell-based high-throughput screen to identify necroptosis inhibitors using a chemical library of ˜200,000 compounds and identified multiple compounds that protected human colorectal adenocarcinoma (HT-29) cells from TNF-α/Smac mimetic/Z-VAD-fmk (TSZ)-induced necroptosis.^[4]
The anti-necroptosis potency of compounds 7-12 and 14-18 was evaluated in the HT-29 cell line; the EC50 values are shown in Table B.
[a] Necroptosis was induced in HT-29 cells for 24 h; the EC50 values given here are the mean values of at least three independent analyses.

[1] = Homo sapiens, Series 2 (Table 2) compounds, HT-29 necroptosis assay, read-out: Series 2 compound necroptosis activity
[2] = Series 1 (Table 1) compounds 1-146, HT-29 cells, TNF-α/Smac mimetic/z-VAD, 24 hrs, cell viability by ATP level, read-out: Series 1 compound necroptosis activity
[3] = Homo sapiens, Series 1 (Table 1) compounds 1-146, HT-29 cells, TNF-α/Smac mimetic/z-VAD, 24 hrs, cell viability by ATP level, read-out: Series 1 compound necroptosis activity
[4] = Series 1 (Table 1) compounds 147-176, activity extrapolated, read-out: Series 1 compound necroptosis activity (extrapolated)

| Structure (SMILES) | EC50 [2] | also measured |
| --- | --- | --- |
| Cn1c(=O)c2c(nc(S(C)(=O)=O)n2C)n(CC#Cc2cccc(NC(=O)c3ccccc3)c2)c1=O [Compound 11] |  | EC50 [1]: 1 to 100 nM |
| Cn1c(=O)c2c(nc(S(C)(=O)=O)n2C)n(CC#Cc2ccc3[nH]c(=O)[nH]c3c2)c1=O [Compound 23] |  | EC50 [1]: 100 to 10000 nM |
| CCCn1c(S(C)(=O)=O)nc2c1c(=O)n(C)c(=O)n2C [Compound 83, 1,3-dimethyl-8-(methylsulfonyl)-7-propyl-1H-purine-2,6(3H,7H)-dione] | 1000 to 1e+06 nM |  |
| Cn1c(=O)c2c(nc(S(=O)(=O)CC3CC3)n2C)n(CC#Cc2ccnc(NCC3CC3)c2)c1=O [Compound 34] |  | EC50 [1]: 1 to 100 nM |
| Cn1c(=O)c2c(nc(S(=O)(=O)Cc3cc[n+]([O-])cc3)n2C)n(C)c1=O [Compound 53, 4-((1,3,7-trimethyl-2,6-dioxo-2,3,6,7-tetrahydro-1H-purin-8-ylsulfonyl)methyl)pyridine 1-oxide] | 1000 to 1e+06 nM |  |
| Cn1c(=O)c2c(nc(S(C)(=O)=O)n2CC#N)n(C)c1=O [Compound 84, 2-(1,3-dimethyl-8-(methylsulfonyl)-2,6-dioxo-2,3-dihydro-1H-purin-7(6H)-yl)acetonitrile] | 1000 to 1e+06 nM |  |
| Cn1c(=O)c2c(nc(S(=O)(=O)CC3CC3)n2C)n(Cc2cccc(Br)c2)c1=O [Compound 140, 3-(3-bromobenzyl)-8-((cyclopropylmethyl)sulfonyl)-1,7-dimethyl-1H-purine-2,6(3H,7H)-dione] |  | EC50 [3]: 1000 to 100000 nM |
| COc1cc(CS(=O)(=O)c2nc3c(c(=O)n(C)c(=O)n3C)n2C)cc(OC)c1 [Compound 59, 8-(3,5-dimethoxybenzylsulfonyl)-1,3,7-trimethyl-1H-purine-2,6(3H,7H)-dione] |  | EC50 (read-out: Series 1 compound necroptosis activity): 1000 to 1e+06 nM |
| CNc1cc(C#CCn2c(=O)n(C)c(=O)c3c2nc([S+]([O-])Cc2cc(OC)ccc2OC)n3C)ccn1 (stereo not drawn) [Compound 128, 8-((2,5-dimethoxybenzyl)sulfinyl)-1,7-dimethyl-3-(3-(2-(methylamino)pyridin-4-yl)prop-2-yn-1-yl)-3,7-dihydro-1H-purine-2,6-dione] |  | EC50 [3]: 1000 to 100000 nM |
| CCn1c(SCC2CC2)nc2c1c(=O)n(C)c(=O)n2C [Compound 81, 8-(cyclopropylmethylthio)-7-ethyl-1,3-dimethyl-1H-purine-2,6(3H,7H)-dione] | 1000 to 1e+06 nM |  |
| CNC/C=C/c1ccc(Cn2c(=O)n(C)c(=O)c3c2nc(S(=O)(=O)CC2CC2)n3C)s1 [Compound 173] |  | EC50 [4]: 1000 to 1e+06 nM |
| Cn1c(=O)c2c(nc(S(=O)(=O)CC3CC3)n2C)n(CC#Cc2cccc(N)c2)c1=O [Compound 124, 3-(3-(3-aminophenyl)prop-2-yn-1-yl)-8-((cyclopropylmethyl)sulfonyl)-1,7-dimethyl-3,7-dihydro-1H-purine-2,6-dione] |  | EC50 (Series 1 (Table 1) compounds, HT-29 cells, TNF-α/Smac mimetic/z-VAD, 24 hrs, cell viability by ATP level, read-out: Series 1 compound necroptosis activity): 1 to 1000 nM |
| C#CCn1c(=O)n(C)c(=O)c2c1nc(S(C)(=O)=O)n2C [Compound 12] |  | EC50 (Homo sapiens, HT-29, 24 h, read-out: EC50 (nM), potency in TSZ-induced necroptosis assays in HT-29 cells): 152 ± 23 nM |
| Cn1c(=O)c2c(nc(S(=O)(=O)Cc3ccccc3C#N)n2C)n(C)c1=O [Compound 42, 2-((1,3,7-trimethyl-2,6-dioxo-2,3,6,7-tetrahydro-1H-purin-8-ylsulfonyl)methyl)benzonitrile] | 1000 to 1e+06 nM |  |
| CCCOc1ccc(OC)cc1CS(=O)(=O)c1nc2c(c(=O)n(C)c(=O)n2C)n1C [Compound 66, 8-(5-methoxy-2-propoxybenzylsulfonyl)-1,3,7-trimethyl-1H-purine-2,6(3H,7H)-dione] | 1000 to 1e+06 nM |  |
| COc1cccc(CS(=O)(=O)c2nc3c(c(=O)n(C)c(=O)n3C)n2C)c1OC [Compound 61, 8-(2,3-dimethoxybenzylsulfonyl)-1,3,7-trimethyl-1H-purine-2,6(3H,7H)-dione] | 1000 to 1e+06 nM |  |
| CCn1c(=O)c2c(nc(S(C)(=O)=O)n2C)n(C)c1=O [Compound 89, ethyl-3,7-dimethyl-8-(methylsulfonyl)-1H-purine-2,6(3H,7H)-dione] | 1000 to 1e+06 nM |  |
| Cn1c(=O)c2c(nc(S(C)(=O)=O)n2C)n(CC#Cc2cc(NC(=O)C3CC3)cc(C(F)(F)F)c2)c1=O [Compound 44] |  | EC50 [1]: 1 to 100 nM |
| COc1ccccc1CS(=O)(=O)c1nc2c(c(=O)n(C)c(=O)n2C)n1C [Compound 35, 8-(2-methoxybenzylsulfonyl)-1,3,7-trimethyl-1H-purine-2,6(3H,7H)-dione] | 1000 to 1e+06 nM |  |
| Cn1c(=O)c2c(nc(S(=O)(=O)CC3CC3)n2C)n(CC#Cc2cccc(NCCN3CCOCC3)c2)c1=O [Compound 19] |  | EC50 [1]: 1 to 100 nM |
| CCOc1ccc(OC)c(CS(=O)(=O)c2nc3c(c(=O)n(C)c(=O)n3C)n2C)c1 [Compound 67, 8-(5-ethoxy-2-methoxybenzylsulfonyl)-1,3,7-trimethyl-1H-purine-2,6(3H,7H)-dione] | 1000 to 1e+06 nM |  |

| Structure (SMILES) | EC50 [2] | also measured |
| --- | --- | --- |
| Cn1c(=O)c2[nH]c(S(C)(=O)=O)nc2n(C)c1=O [Compound 72, 1,3-dimethyl-8-(methylsulfonyl)-1H-purine-2,6(3H,7H)-dione] | 1000 to 1e+06 nM |  |
| CNc1cc(C#CCn2c(=O)n(C)c(=O)c3c2nc(S(C)(=O)=O)n3C)ccc1N1CCOCC1 [Compound 174] |  | EC50 [4]: 1000 to 1e+06 nM |
| Cn1c(=O)c2c(nc(S(C)(=O)=O)n2C)n(CC#Cc2cc(F)cc(NC(=O)CN3CCOCC3)c2)c1=O [Compound 20] |  | EC50 [1]: 1 to 100 nM |
| Cn1c(=O)c2c(nc(S(=O)(=O)Cc3cccc4ccccc34)n2C)n(C)c1=O [Compound 24, 1,3,7-trimethyl-8-(naphthalen-1-ylmethylsulfonyl)-1H-purine-2,6(3H,7H)-dione] | 1000 to 1e+06 nM |  |
| Cn1c(=O)c2c(nc(S(=O)(=O)Cc3ccc(F)cc3)n2C)n(C)c1=O [Compound 28, 8-(4-fluorobenzylsulfonyl)-1,3,7-trimethyl-1H-purine-2,6(3H,7H)-dione] | 1000 to 1e+06 nM |  |
| Cn1c(=O)c2c(nc(S(=O)(=O)Cc3ccc(C#N)cc3)n2C)n(C)c1=O [Compound 44, 4-((1,3,7-trimethyl-2,6-dioxo-2,3,6,7-tetrahydro-1H-purin-8-ylsulfonyl)methyl)benzonitrile] | 1000 to 1e+06 nM |  |
| Cn1c(=O)c2c(nc(S(=O)(=O)CC3CC3)n2C)n(CC#Cc2ccnc(NC(=O)CN3CCOCC3)c2)c1=O [Compound 32] |  | EC50 [1]: 1 to 100 nM |
| Cn1c(=O)c2c(nc(S(=O)(=O)CC3CC3)n2C)n(CC#Cc2cc(NC(=O)C3CC3)cc(C(F)(F)F)c2)c1=O [Compound 46] |  | EC50 [1]: 100 to 10000 nM |
| COc1cccc(CS(=O)(=O)c2nc3c(c(=O)n(C)c(=O)n3C)n2C)c1 [Compound 36, 8-(3-methoxybenzylsulfonyl)-1,3,7-trimethyl-1H-purine-2,6(3H,7H)-dione] | 1000 to 1e+06 nM |  |
| Cn1c(=O)c2c(nc(S(=O)(=O)Cc3cccc(C4(C(F)(F)F)N=N4)c3)n2C)n(C)c1=O [Compound 40, 1,3,7-trimethyl-8-(3-(3-(trifluoromethyl)-3H-diazirin-3-yl)benzylsulfonyl)-1H-purine-2,6(3H,7H)-dione] | 1000 to 1e+06 nM |  |
| Cn1c(=O)c2c(nc3n2CCCS3(=O)=O)n(CC#Cc2cccc(O)c2)c1=O [Compound 149] |  | EC50 [4]: 1000 to 1e+06 nM |
| CCCC(=O)Nc1cccc(C#CCn2c(=O)n(C)c(=O)c3c2nc(S(=O)(=O)CC2CC2)n3C)c1 [Compound 161] |  | EC50 [4]: 1000 to 1e+06 nM |
| Cn1c(=O)[nH]c2nc(S(C)(=O)=O)n(C)c2c1=O [Compound 99, 1,7-dimethyl-8-(methylsulfonyl)-1H-purine-2,6(3H,7H)-dione] |  | EC50 [3]: 1000 to 100000 nM |
| CCSc1nc2c(c(=O)n(C)c(=O)n2C)n1C [Compound 5, 8-(ethylthio)-1,3,7-trimethyl-1H-purine-2,6(3H,7H)-dione] | 1000 to 1e+06 nM |  |
| COc1ccc(Br)c(OC)c1CS(=O)(=O)c1nc2c(c(=O)n(C)c(=O)n2C)n1C [Compound 69, 8-(3-bromo-2,6-dimethoxybenzylsulfonyl)-1,3,7-trimethyl-1H-purine-2,6(3H,7H)-dione] | 1000 to 1e+06 nM |  |
| CCn1c([S+]([O-])CC)nc2c1c(=O)n(C)c(=O)n2C (stereo not drawn) [Compound 76, 7-ethyl-8-(ethylsulfinyl)-1,3-dimethyl-1H-purine-2,6(3H,7H)-dione] | 1000 to 1e+06 nM |  |
| Cn1c(S(C)(=O)=O)nc2c1c(=O)n(-c1ccccc1)c(=O)n2C [Compound 92, 3,7-dimethyl-8-(methylsulfonyl)-1-phenyl-1H-purine-2,6(3H,7H)-dione] | 1000 to 1e+06 nM |  |
| COCCOc1cc(C#CCn2c(=O)n(C)c(=O)c3c2nc([S+](C)[O-])n3C)cc(NC(=O)C2CC2)c1 (stereo not drawn) [Compound 54] |  | EC50 [1]: 1 to 100 nM |
| CCS(=O)(=O)c1nc2c(c(=O)n(C)c(=O)n2C)n1C [Compound 7, 8-(ethylsulfonyl)-1,3,7-trimethyl-1H-purine-2,6(3H,7H)-dione] |  | EC50 [3]: 1000 to 100000 nM |
| Cn1c(=O)c2c(nc(S(=O)(=O)CC3CC3)n2C)n(Cc2ccccn2)c1=O [Compound 142, 8-((cyclopropylmethyl)sulfonyl)-1,7-dimethyl-3-(pyridin-2-ylmethyl)-1H-purine-2,6(3H,7H)-dione] | 1000 to 1e+06 nM |  |
| Cn1c(=O)c2c(nc(S(=O)(=O)c3ccccc3)n2C)n(C)c1=O [Compound 20, 1,3,7-trimethyl-8-(phenylsulfonyl)-1H-purine-2,6(3H,7H)-dione] | 1000 to 1e+06 nM |  |
